Measurements reported in patent US20180209966A1, “FLUORESCENCE POLARIZATION IMMUNOASSAY METHOD FOR DETECTING CARBARYL” (priority 2017, published 2018).

Legend:
Assay type in all cases: binding, BALB/c mice
[1] = system: anti-carbaryl monoclonal antibody secreted by the hybridoma cell line Jnw1D2; test: indirect competitive ELISA characterisation of the anti-carbaryl monoclonal antibody (IC50, cross reaction); settings: with anti-carbaryl monoclonal antibody
Description: 2-3 weeks after cell fusion, when the cell colonies grew up to be visually visible, the clones were picked out from the culture medium with a micropipette, transferred to a 96-well cell culture plate and cultured in HAT liquid. When the cells grew to cover ⅔ of the bottom of the well, the culture supernatant was aspirated for testing. A two-step screening method was adopted. In the first step, indirect ELISA method was used to screen out the positive wells against carbaryl, but not the carrier protein BSA. In the second step, indirect competitive ELISA method was used for testing the positive wells screened out in the first step with carbaryl as a competitor. Wells with high absorbance and sensitivity were chosen (where the high absorbance means a high final value determined in the well where the competitor is 0, i.e., the positive control well, and the high sensitivity means a low concentration, i.e. the IC50, of the competitor achieving 50% inhibition). The cells were subcloned by limiting dilution analysis, and then detected by the two-step method as described above. After 4-5 rounds of repeated subcloning, a hybridoma cell line Jnw1D2 was obtained, which was deposited in China Center for Type Culture Collection (CCTCC) (Wuhan University, Wuhan, China) under the CCTCC Accession No: C201654.
The subtype of the anti-carbaryl monoclonal antibody secreted by the hybridoma cell line Jnw1D2 was identified as IgG2b by using a commercial subtype identification kit. The titer of the antibody was 1.6×10^4 measured by enzyme-linked immunosorbent assay (ELISA).

[2] = system: anti-carbaryl monoclonal antibody; test: competitive FPIA carbaryl standard curve in strawberry sample matrix; settings: 25° C., 5 min
Protocol: Step 1: 20.0 g of the blank strawberry sample (which was determined to be carbaryl free by LC) was weighed and added to 20.0 mL acetonitrile, homogenized for 2 min at a high speed, filtered into a 50 mL centrifuge tube containing 4 g of sodium chloride, shaken vigorously for 3 min, and centrifuged at 5000 g for 2 min. 10 mL of the supernatant extract was aspirated to a beaker, heated in a water bath at 80° C., and evaporated to almost dryness while nitrogen was introduced into the beaker. 10 mL of methanol was added to dissolve the sample residue, to obtain a sample matrix solution. 9 concentration gradients of carbaryl standards of 100 μg/mL, 10 μg/mL, 1μg/mL, 0.5 μg/mL, 0.1 μg/mL, 0.05 μg/mL, 0.01 μg/mL, 0.005 μg/mL and 0.001 μg/mL were formulated with the sample matrix solution. Each 50 μL of the carbaryl standard solution in the sample matrix solution, 500 μL fluorescent marker solution and 500 μL anti-carbaryl monoclonal antibody solution were added and incubated at 25° C. for 5 min. Then FPIA detection was conducted. According to the correlation between the fluorescence polarization signal and the concentration of the carbaryl standard, a standard curve for carbaryl detection in the strawberry sample was obtained, as shown in FIG. 2. The detection sensitivity of carbaryl in the strawberry matrix is 108.6 μg/kg and the detection range is 32.4-363.6 μg/kg. […]

[3] = system: anti-carbaryl monoclonal antibody; test: competitive FPIA carbaryl standard curve in borate buffer solution; settings: 10% methanol, 10 min
Protocol: Step 2: First, the working concentration of each fluorescent marker was set to a corresponding fluorescent marker concentration (5 nM) when the fluorescence intensity was 10 times of the background fluorescence intensity of the BB solution (borate buffer solution). With a corresponding antibody dilution factor when 70% of the anti-carbaryl monoclonal antibody binds to the fluorescent marker (1 μg/mL), the carbaryl detection standard curve of different markers was established and the IC50 was calculated. The optimum fluorescent marker was decided based on the IC50 value of each standard curve. […]
9 concentration gradients of carbaryl standards of 100 μg/mL, 10 μg/mL, 1 μg/mL, 0.5 μg/mL, 0.1 μg/mL, 0.05 μg/mL, 0.01 μg/mL, 0.005 μg/mL and 0.001 μg/mL were formulated with 10% methanol in a borate buffer solution, and each 50 μL of the carbaryl standards, 500 μL fluorescent marker of working concentration (5 nM), and 500 μL anti-carbaryl monoclonal antibody of the working concentration (1 μg/mL) were added to a reaction tube, and incubated at room temperature in the dark for 10 min. Then the fluorescence polarization value was measured at an excitation wavelength of 485 nm and an emission wavelength of 530 nm, with a cutoff of 515 nm. […]

Structure (SMILES) | cross reaction [1] | detection sensitivity [2] [µg/kg] | sensitivity of the standard curve [3] [ng/mL]
CNC(=O)Oc1cccc2c1OC(C)(C)C2 [carbofuran] | no cross reaction | – | –
CNC(=O)ON=C(C)SC [methomyl] | no cross reaction | – | –
CNC(=O)Oc1cccc2ccccc12 [carbaryl] | – | 108.6 | 82.3
CNC(=O)O/N=C/C(C)(C)SC [aldicarb] | no cross reaction | – | –
